Results reported in US12534452B2, “N-(1H-imidazol-2-yl)benzamide compound and pharmaceutical composition comprising the same as active ingredient” (KAINOS MEDICINE, INC., priority 2019, dated 2026).

Molecular target: IRAK4 (Homo sapiens (Human), UniProt Q9NWZ3)
Assay: In vitro IRAK4 phosphorylation activity assay
Format: biochemical
Settings: [γ-33P]-ATP, myelin basic protein substrate, 40 minutes at room temperature; categories
Summary of the method: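 Radiometric filter-binding assay, no compound–kinase preincubation; 8 mM MOPS pH 7.0, 0.2 mM EDTA, 10 mM Mg acetate, 0.33 mg/mL myelin basic protein substrate, [γ-33P]-ATP. Reaction 40 min at room temperature, stopped with phosphoric acid, scintillation counting; IC50 reported in categories.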

Sequence of IRAK4 (Q9NWZ3 whole entry): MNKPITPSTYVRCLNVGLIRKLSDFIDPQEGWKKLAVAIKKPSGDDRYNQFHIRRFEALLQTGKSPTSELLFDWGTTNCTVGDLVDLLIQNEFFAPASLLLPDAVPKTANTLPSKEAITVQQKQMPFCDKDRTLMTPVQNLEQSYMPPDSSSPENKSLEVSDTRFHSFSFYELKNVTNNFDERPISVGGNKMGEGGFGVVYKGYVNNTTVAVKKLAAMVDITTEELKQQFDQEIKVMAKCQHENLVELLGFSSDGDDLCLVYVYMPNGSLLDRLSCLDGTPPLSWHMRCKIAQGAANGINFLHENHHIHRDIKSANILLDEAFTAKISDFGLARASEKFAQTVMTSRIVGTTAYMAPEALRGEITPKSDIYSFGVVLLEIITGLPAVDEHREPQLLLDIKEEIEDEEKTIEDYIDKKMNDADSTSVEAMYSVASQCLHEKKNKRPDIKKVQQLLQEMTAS

IC50 [µM] | Compound
0.05 to 0.1 | O=C(CCc1cn(-c2cccc(Br)c2)c(NC(=O)c2cccc(-c3cn[nH]c3)c2)n1)Nc1ccccc1 [Example 294, N-(1-(3-bromophenyl)-4-(3-oxo-3-(phenylamino)propyl)-1H-imidazol-2-yl)-3-(1H-pyrazol-4-yl)benzamide]
< 0.05 | O=C(Nc1nc(CCCCCN2CCSCC2)cn1-c1ccccc1)c1cccc(-c2cn[nH]c2)c1 [Example 120, N-(1-phenyl-4-(5-thiomorpholinopentyl)-1H-imidazol-2-yl)-3-(1H-pyrazol-4-yl)benzamide]
< 0.05 | O=C(Nc1nc(CCCCCCN2CCCCC2)cn1-c1ccc(F)cc1)c1cccc(-c2cn[nH]c2)c1 [Example 301, N-(1-(4-fluorophenyl)-4-(6-(piperidin-1-yl)hexyl)-1H-imidazol-2-yl)-3-(1H-pyrazol-4-yl)benzamide]

Compound | IC50 [µM]
C[Si](C)(C)CCOCn1cc(-c2cccc(C(=O)Nc3nc(CCCC(=O)NC4CC4)cn3-c3ccccc3)c2)cn1 [Example 67, N-(4-(4-(cyclopropylamino)-4-oxobutyl)-1-phenyl-1H-imidazol-2-yl)-3-(1-((2-(trimethylsilyl)ethoxy)methyl)-1H-pyrazol-4-yl)benzamide] | > 0.1
